Reference: patent publication US20230416330A1, “Optimized GIP Peptide Analogues” (Antag Therapeutics ApS, priority 2019, published 2023)
Starred links: 1 amine or outer side, 2 acyl side, 3 side chain; linkers in the order of their positions; H or OH if unused. Residues, ends and D or L forms follow the SMILES beside them. *: point of attachment. C16 diacid = O=C(O)CCCCCCCCCCCCCCC(=O)*; Glutaryl = O=C(CCCC(=O)[*:2])[*:1]

Legend:
human GIP receptor = biological target: T1, human GIP receptor (Homo sapiens, UniProt P48546); experiment: cAMP assay Alternative 3 (Schild analysis), antagonist potency pKb; type: cell-based
T1 construct: host or cells: HEK-293 cells, transient transfection (Lipofectamine 2000), cDNA in pCMV-Script vector
T1 sequence (P48546 22-466): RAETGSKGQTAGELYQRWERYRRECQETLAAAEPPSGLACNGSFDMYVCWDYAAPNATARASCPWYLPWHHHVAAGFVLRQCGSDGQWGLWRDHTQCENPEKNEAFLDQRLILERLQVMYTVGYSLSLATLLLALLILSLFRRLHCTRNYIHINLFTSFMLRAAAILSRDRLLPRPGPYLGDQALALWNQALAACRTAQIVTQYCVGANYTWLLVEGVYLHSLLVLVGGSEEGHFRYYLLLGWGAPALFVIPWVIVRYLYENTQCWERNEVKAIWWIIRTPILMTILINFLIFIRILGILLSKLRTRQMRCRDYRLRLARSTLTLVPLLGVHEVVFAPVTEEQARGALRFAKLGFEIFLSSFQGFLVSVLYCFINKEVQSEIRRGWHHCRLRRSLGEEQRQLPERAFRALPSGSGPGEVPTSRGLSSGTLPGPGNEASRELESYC
Description: Antagonist potency was also determined by Schild analysis. GIP1-42 EC50 was measured in the absence of antagonist and EC50′ was measured in the presence of increasing concentrations of antagonist. These values were used to calculate a dose ratio (DR=EC50′/EC50) for each antagonist concentration, and log(DR-1) was plotted against log(antagonist concentration).
The in vitro functional assessment of compounds towards human GIP receptor was determined in HEK-293 cells transiently expressing the receptor. On the day of the assay, cells were resuspended in HBSS buffer (Gibco, 14025-50) supplemented with […] (Gibco, 15630-106), 0.1% Pluronic F-68 (Gibco, 24040-032) and 0.1% casein (Sigma, C4765), and plated in 384-well plates at a density of 3500 cells/well. […] The intracellular cAMP was quantitatively determined using the CisBio cAMP Dynamic 2 HTRF Assay Kit. […]
The cAMP-d2 conjugate and the antibody anti-cAMP-Cryptate, both diluted in lysis buffer provided in the kit, were added to the cells according to the manufacturer's protocol. The resulting competitive assay was incubated for 60 minutes at room temperature, and the signal was detected by using a PerkinElmer Envision® instrument with excitation at 320 nm and emission at 665 nm and 620 nm. […]

[1] = Physical stability: fibril formation in Thioflavin T (ThT) assay with agitation; type: physicochemical; settings: TFA, 25° C., agitation
How it was run: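 Read-out is continuous ThT fluorescence at 486 nm, with lag time taken where signal reaches 10% between pre- and post-transition baselines. Filtered samples (1, 5, 7.5 or 15 mg/ml; pH 7.4 phosphate buffer or NaOH-adjusted water) were stressed at 25° C. by orbital rotation at 300 rpm with one silica bead per well.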

[2] = Solubility by visual inspection of peptide solutions; type: physicochemical; settings: TFA
How it was run: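 Solubility scored by eye: clear, colorless appearance after gentle mixing. Samples prepared at 1, 5, 7.5 or 15 mg/ml in either pH 7.4 water (NaOH-adjusted) or 50 mM sodium phosphate buffer, pH 7.4.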

## CC[C@H](C)[C@H](NC(=O)[C@H](CO)NC(=O)[C@H](Cc1ccc(O)cc1)NC(=O)[C@H](CC(=O)O)NC(=O)[C@H](CO)NC(=O)[C@@H](NC(=O)[C@H](Cc1ccccc1)NC(=O)[C@@H](NC(=O)CNC(=O)CCCC(=O)O)[C@@H](C)O)[C@@H](C)CC)C(=O)N[C@@H](C)C(=O)N[C@@H](CCSC)C(=O)N[C@@H](CC(=O)O)C(=O)N[C@@H](CCCCN)C(=O)N[C@H](C(=O)N[C@@H](CCCCNC(=O)CCCCCCCCCCCCCCC(=O)O)C(=O)N[C@@H](CCC(N)=O)C(=O)N[C@@H](CCC(N)=O)C(=O)N[C@@H](CC(=O)O)C(=O)N[C@@H](Cc1ccccc1)C(=O)N[C@H](C(=O)N[C@@H](CCC(=O)O)C(=O)N[C@@H](Cc1c[nH]c2ccccc12)C(=O)N[C@@H](CC(C)C)C(=O)N[C@@H](CC(C)C)C(=O)N[C@@H](C)C(=O)N[C@@H](CCC(N)=O)C(=O)N[C@@H](CCCCN)C(=O)N1CCC[C@H]1C(=O)N[C@@H](CO)C(=O)N[C@@H](CO)C(=O)NCC(=O)N[C@@H](C)C(=O)N1CCC[C@H]1C(=O)N1CCC[C@H]1C(=O)N1CCC[C@H]1C(=O)N[C@@H](CO)C(=O)O)C(C)C)[C@@H](C)CC [AT762] (Glutaryl-GTFISDYSIAMDKIK(C16 diacid)QQDFVEWLLAQKPSSGAPPPS-OH)
Human GIP receptor
  Kb: 0.15 nM
[1]; 1 mg/ml, Phosphate (7.4)
  Avr lag time (h): fnd (Fnd = fibrils not detected within experiment time (96 hours) with agitation.)
[1]; 5 mg/ml, MilliQ
  Avr lag time (h): fnd (Fnd = fibrils not detected within experiment time (96 hours) with agitation.)
[2]; 1 mg/ml, Phosphate (7.4)
  Visual appearance: Clear
[2]; 5 mg/ml, MilliQ
  Visual appearance: Clear
